Source: ChEMBL document CHEMBL1157539, “Thousands of chemical starting points for antimalarial lead identification” (Nature, 2010)

System: Plasmodium falciparum
Assay: GSK_TCMDC: Inhibition of Plasmodium falciparum 3D7 in whole erythrocytes, using parasite LDH activity as an index of growth.
Assay type: functional, organism-based
Details: Plasmodium falciparum, 3D7

Structure (SMILES)	XC50
OC(CNCc1ccccc1OCc1ccccc1)c1cc(Br)cs1 (stereo not drawn)	0.722 µM
CN(C)C(C)(C)CN(Cc1ccc(-c2ccc(C(F)(F)F)cc2)cc1)C(=O)Cn1c(CCc2cccc(F)c2F)nc(=O)c2ccccc21	0.827 µM
CC=CCON1C(=N)NC(=N)NC1(C)C	0.0279 µM
COc1cccc(NC(=O)COc2ccc(C(=O)Nc3nc4ccccc4[nH]3)cc2)c1	0.97 µM
O=C(NCCc1cccc(Cl)c1Cl)c1ccc(N2CCN(c3ccncc3)CC2)nc1	1.06 µM
Cc1ccccc1/N=C1\NC(=S)N(c2cccc(C(F)(F)F)c2)C12CCC(C(C)(C)C)CC2 (stereo not drawn)	0.973 µM
O=S(=O)(Nc1cccc(CCN2CCCCC2CCN2CCCC2)c1)c1ccc(Oc2ccccc2)cc1 (stereo not drawn)	1.05 µM
COc1cccc(NC(=O)Nc2c(-c3cccc(C(F)(F)F)c3)c(C(F)(F)F)nn2C)c1	0.911 µM
c1ccc(-n2ncc(CNCc3ccc(-c4ccc(-c5nc6ccccc6[nH]5)s4)cc3)n2)cc1	1.4 µM
CO/C(=C\C=C\c1cc2cc(Cl)c(Cl)cc2[nH]1)C(=O)NCCCN1CCN(C2CCCCC2)CC1	1.01 µM
CC(C)N1CCC(Oc2ccc(CN3CCN(C(c4ccccc4)c4ccc(Cl)cc4)CC3)cc2)CC1 (stereo not drawn)	0.937 µM
CC(C)N(CCOc1ccc2c(c1)N(C(=O)Nc1ccc(Cl)c(Cl)c1)CC2)C(C)C	0.367 µM
OC(CNCc1ccccc1OCc1ccccc1)c1cccc(Br)c1 (stereo not drawn)	0.643 µM
Oc1ccc(CCNc2nc(NCCOc3cccc4ccccc34)nc(N3CCNCC3)n2)cc1	0.901 µM
COc1ccc(-c2cccc(NC(=O)c3ccc(C#N)cc3)c2)cc1CN1CCCN(C)CC1	0.756 µM
Cc1onc(-c2ccccc2)c1-c1nc(NCc2ccccc2Cl)no1	0.699 µM
CC(C)(C)c1ccc(C(=O)Nc2cccc(Nc3c(C(=O)NCc4cccc(C(F)(F)F)c4)cnc4c(O)cccc34)c2)cc1	1.09 µM
CCc1cc(Br)c2c(c1)C(NCCCNc1cc(=O)c3ccccc3[nH]1)CCN2 (stereo not drawn)	0.852 µM
COc1cc(N)c(Cl)cc1C(=O)NC1CCC(NCC2CCCCC2)CC1 (stereo not drawn)	0.426 µM
FC(F)(F)c1cccnc1N1CCC(Nc2nc3cc(Cl)ccc3[nH]2)CC1	0.646 µM
O=C(Nc1cc(F)cc(-c2cccnc2)c1)c1ccc2c(=O)n(Cc3ccccc3)cnc2c1	1.33 µM
CN1CCN(CCCN(Cc2cccc(-c3ccc(CNC4CCCC4)cc3)c2)C(=O)/C=C/c2ccccc2)CC1	0.746 µM
CNCc1cccc(-c2ccc3ccnc(N)c3c2)c1	0.0931 µM
O=C(Nc1ccc(Cl)cc1)Nc1ccc(-c2ccc(-c3nc4ccccc4[nH]3)cc2)cc1	0.0507 µM
COc1cc(C(=O)Nc2cccc(-c3cn4cccc(C)c4n3)c2)cc(OC)c1OC	0.697 µM

Structure (SMILES)	XC50
CCCCOP(=O)(OCCCC)C(=Cc1ccc(O)c2ccccc12)P(=O)(OCCCC)OCCCC	1.07 µM
COc1cc2ccccc2cc1CNCCCCCCNCc1cc2ccccc2cc1OC	0.72 µM
Cc1cn(CC(=O)Nc2cccc(-c3cccc(-c4nc5cccc(C)c5[nH]4)c3)c2)c(=O)[nH]c1=O	0.581 µM
CCNc1cc(C(=O)N[C@@H](Cc2ccoc2)[C@H](O)CNC(C)CCCC(C)C)cc(N2CCCCS2(=O)=O)c1 (stereo partly drawn)	0.619 µM
COc1ccc(S(=O)(=O)N2CCCc3ccc(Br)cc32)cc1N1CCN(C(=O)C(Cl)(Cl)Cl)CC1	0.809 µM
CC(C)Cc1csc(NC(=O)C=Cc2ccco2)c1C(=O)O	0.305 µM
COc1ccc2c(c1)Sc1ccccc1C(N1CCN(CCO)CC1)C2 (stereo not drawn)	1.39 µM
Cc1cccc2nc(-c3cccc(-c4cccc(CN5CCCC5CN)c4)c3)[nH]c12 (stereo not drawn)	0.767 µM
COc1ccc(C#Cc2ccc(-c3c(C)[nH]c(C)c(Cl)c3=O)cc2)cc1	0.0665 µM
O=C(Nc1cccc(C(F)(F)F)c1)c1cc([N+](=O)[O-])cc2cn[nH]c12	0.995 µM
O=[N+]([O-])c1cc(C(c2ccc(O)c([N+](=O)[O-])c2)C(Cl)(Cl)Cl)ccc1O	0.734 µM
O=C(Nc1ccc(-c2cccc(-c3nc4ccccc4[nH]3)c2)cc1)Nc1ccc(F)c(F)c1F	0.182 µM
N#Cc1ccc(N2CCN(Cc3cccc(-c4ccc(-c5nc6ccccc6[nH]5)cc4)c3)CC2)nc1	1.24 µM
CC(C)n1ncc2c3c(N)nc(N)nc3ccc21	0.333 µM
Cc1cccc(CNc2nc(C)cc(N[C@@H](Cc3ccccc3)C(=O)NCCOc3ccccc3)n2)c1	0.914 µM
COc1ccc(-c2cccc(NC(=O)c3cccc(C#N)c3)c2)cc1CNC(C)C	0.694 µM
Oc1ccc2[nH]c(-c3cccc(F)c3)nc2c1CN1CCC(N2CCCC2)CC1	0.184 µM
COc1ccccc1CCCN1C(=O)C(c2ccccc2)(c2ccccc2)N=C1N	0.265 µM
CC(C)c1cc(C(=O)N[C@@H](Cc2ccccc2)[C@H](O)CNC2CCCCC2)cc(N2CCCC2=O)c1	0.121 µM
CN1CCN(c2cc3c(cc2Cl)CCN3C(=O)Cc2ccc(Cl)c(NC(=O)Nc3cccc([N+](=O)[O-])c3)c2)CC1	0.718 µM
O=C(Nc1cccc(CN2CCN(Cc3ccc(O)cc3)CC2)c1)c1cc2ccccc2s1	0.682 µM
CCCCCCC(C)c1cc(O)c2c(c1)OC(=O)CC2(CC)c1ccccn1 (stereo not drawn)	0.335 µM
COc1ccc(F)cc1-c1ccccc1CNC(=O)c1cnn(-c2ccc([N+](=O)[O-])cc2)c1C(F)(F)F	0.596 µM
O=C(Nc1cccc(CN2CCCN(CCc3ccccc3)CC2)c1)c1ccc(Cl)c(Cl)c1	0.952 µM
C=CCn1c(=N)c(C(=O)NC2CCCCC2)cc2c(=O)n3cccc(C)c3nc21	1.04 µM

Structure (SMILES)	XC50
COc1ccc(Nc2nc(NCc3cccnc3)cc(-c3ccc(OC)cc3)n2)cc1	1.4 µM
O=C(CCc1c[nH]cn1)Nc1cccc(-c2ccc(-c3nc4ccccc4[nH]3)s2)c1	0.759 µM
O=C(CC1SC(N2N=C(c3cccs3)CC2c2ccccc2)=NC1=O)Nc1ccc(Cl)cc1 (stereo not drawn)	1.68 µM
Fc1ccc(-c2nc(NCc3cccc(C(F)(F)F)c3)nn2-c2cccc(C(F)(F)F)c2)cc1C(F)(F)F	1.05 µM
Nc1c(Cl)cc(C(O)CNCCCCCCOCCc2ccc(O)cc2)cc1Cl (stereo not drawn)	0.725 µM
Cc1cc(NC(=O)c2cccs2)ccc1OC1CCN(Cc2ccccc2)CC1	0.874 µM
OCC1CCN(Cc2ccc(-c3cccc(-c4nc5cc(F)ccc5[nH]4)c3)cc2)CC1	0.91 µM
N#Cc1cccc(NC(=O)Nc2cccc(OC3CCN(Cc4ccccc4)CC3)c2)c1	0.841 µM
CC(C)CN(c1nc(C(=O)NNC(=O)[C@H](CC2CC2)NC(=O)c2cc3cc(OCCN4CCCCC4)ccc3o2)cs1)C1CC1	0.213 µM
CCCN(C(=O)c1ccccc1C)c1nnc(-c2ccccc2C)s1	1.11 µM
c1ccc(CNCc2ccc(-c3cccc(-c4nc5ccccc5[nH]4)c3)cc2)cc1	0.422 µM
NC1CCN(CCc2ccc(NS(=O)(=O)c3ccc(-c4ccccc4)cc3)cc2)CC1	1.02 µM
Clc1cc(Nc2ncnc3cc(C#C[C@H]4CCCN4)sc23)cc2nc(Cc3ccccc3)[nH]c12	0.852 µM
COc1ccc(Nc2nccc(N3CCC(NC(=O)Nc4cc(C)ccc4C)C3)n2)cc1 (stereo not drawn)	0.901 µM
CCCCOc1cc(CNCCCCCCNCc2cc(OCCCC)cc3ccccc23)c2ccccc2c1	0.736 µM
CN1CCN(CCCCCCNc2c3ccccc3nc3ccccc23)CC1	0.722 µM
Nc1ncc(-c2ccsc2)c2ccc(-c3ccc4cn[nH]c4c3)cc12	0.814 µM
Fc1ccc2[nH]c(-c3cccc(-c4ccc(CNCC5CCCO5)cc4)c3)nc2c1 (stereo not drawn)	0.541 µM
CC(C)CNCc1ccc(-c2cccc(CN(CCN(C)C)C(=O)NCCc3ccccc3)c2)cc1	1.06 µM
O=C(Nc1ccc(N2CCN(Cc3c[nH]c4cc(F)ccc34)CC2)cc1)c1ccccc1-c1ccc(C(F)(F)F)cc1	0.985 µM
O=C(N[C@@H](CC1CCCCC1)C(=O)NC1CC1)c1ccc(O)c(-c2cccc(C(F)(F)F)c2)c1	0.773 µM
Cn1c(N=C2NC3(c4ccccn4)NC(=Nc4nc5ccccc5n4C)NC3(c3ccccn3)N2)nc2ccccc21 (stereo not drawn)	1.04 µM
O=C(CCCCCNC(=O)c1ccc(O)c(-c2ccc(Cl)c(Cl)c2)c1)NCCc1ccc(Cl)c(Cl)c1	0.756 µM
CCCCN1CCN(CCCCNc2c3ccccc3nc3ccccc23)CC1	0.167 µM
COc1ccc(CNC(=O)NC2CCN(c3ccnc(Nc4ccc(F)cc4)n3)CC2)cc1	1.05 µM

Structure (SMILES)	XC50
COc1cccc(Cn2ccc3c4c(N)nc(N)nc4ccc32)c1	0.0032 µM
CN(C)c1ccc(C=C2SC(=N)N(c3nccs3)C2=O)cc1	0.461 µM
Cc1cc(-c2ncc[nH]2)ccc1-c1ccc(C(=O)N2CCc3cc4c(cc32)C2(CCN(C)CC2)CO4)cc1	0.8 µM
CN(C)CCCN(C)c1cccc2c1nc(-c1cccnc1)n2CCNCc1ccccc1	1.39 µM
COC(=O)c1ccc(CC(C)NCC(O)c2cccc(C(F)(F)F)c2)c(Cl)c1 (stereo not drawn)	0.854 µM
Nc1nc(N)c2c(ccc3nn(C4CCCC4)cc32)n1	0.287 µM
Nc1nc(N)c2c(Oc3cc(Cl)c(Cl)c(Cl)c3)cccc2n1	0.804 µM
CN(C)CCCN1C(=O)c2[nH]nc(-c3ccc(Cl)cc3O)c2C1c1ccc(Cl)cc1 (stereo not drawn)	0.758 µM
COc1ccc(CNC(=O)c2cnc3c(O)cccc3c2Nc2cccc(NC(=O)c3ccc(Cl)c(Cl)c3)c2)cc1	0.604 µM
NC(=O)NC(=O)C=Cc1ccco1	0.15 µM
COc1ccccc1N1CCN(c2cccc(F)c2C#N)CC1	0.965 µM
CN1CCCN(Cc2ccc(-c3cccc(NC(=O)c4ccc(F)cc4)c3)cc2)CC1	1.09 µM
CCOc1ccc(-c2nonc2NC(=O)c2ccc(OC(C)C)cc2)cc1OCC	0.601 µM
COc1cc2nc(SCCCC#N)n(C3CCCCCC3)c(=N)c2cc1OC	1.14 µM
CC(C)CN(Cc1c(O)ccc2[nH]c(-c3ccc(F)cc3F)nc12)CC(C)C	0.802 µM
O=C(CCCCCNC(=O)c1ccc(O)c(-c2ccc(Cl)c(Cl)c2)c1)NCCN1CCCCC1	0.886 µM
O=C(/C=C/c1ccc(Cl)c(Cl)c1)NC1CCC(CN2CCC(c3nc4cccnc4[nH]3)CC2)CC1 (stereo not drawn)	1.23 µM
CCN(CC)CCN1C(=O)C(O)(c2ccccc2Cl)c2c1cc(C#N)cc2C(F)(F)F (stereo not drawn)	0.947 µM
O=C(/C=C/c1ccc(Cl)c(Cl)c1)NCCCCCN1CCC(NC(=O)Nc2cc(Cl)nc(Cl)c2)CC1	0.976 µM
Cc1cc(C)c2nc(N3CCC(C(=O)NCCCN4CCC(N5CCCCC5)CC4)CC3)sc2c1	0.838 µM
COc1coc(C(=O)NC2CCN(CC3(c4ccc(Cl)cc4)CCC3)CC2)c1OC	0.164 µM
CC(NC(=O)c1cc(-c2ccccc2)nc2c1cnn2C(C)C)C1CC1 (stereo not drawn)	1.28 µM
CC(C)(CNCc1ccc(OC(F)(F)F)cc1)c1nc(-c2ccc(Cl)c(O)c2)c(-c2ccncc2)[nH]1	0.545 µM
